Assays:
Type in all cases: in vivo
rice plant = test: Test Example 5: effect on crop by foliage application, plastic box (symbol b); conditions: 320 g/ha, 3 weeks after application
Procedure, shortened: (§1)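 Box culture: sterile diluvial soil, seeds spot-sown, ~1.5 cm cover, raised under glass at 25–30° C.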

Setaria viridis = test: Test Example 5: herbicidal effect by foliage application, plastic box (symbol G); conditions: 320 g/ha, 3 weeks after application
Procedure, shortened: (§2)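 Effect is rated 3 weeks after a foliar spray of water-diluted emulsion concentrate at a predetermined herbicide amount. Plants had grown 14 days in a 25° C. to 30° C. greenhouse from seed in sterilized diluvial soil.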

[1] = tested on: Echinochloa oryzacola Vasing.; test: Test Example 1: herbicidal activity, application before weed generation in submerged conditions (symbol A); conditions: application herbicide amount 320 g/ha
Procedure, shortened: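 Weeds are sown into submerged alluvial soil alongside transplanted 2.5-leaf rice, and the compound, as an emulsion diluted to a set rate, is applied onto the water before emergence. Rating on the 0–5 herbicidal-ratio scale follows 3 weeks of greenhouse growth at 25–30 °C.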

Amaranthus retroflexus = test: Test Example 4: herbicidal effect by soil treatment (symbol N); conditions: for N: Amaranthus retroflexus, herbicidal effect grade: 320 g/ha; for N (Amaranthus retroflexus) herbicidal effect grade: application herbicide amount 320 g/ha
Procedure, shortened: (§3)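 Seeds were sown in sterilized diluvial soil, covered with about 1.5 cm of soil, and the soil surface was sprayed with a water-diluted emulsion of the compound at a predetermined rate. Plants grew in a greenhouse at 25° C. to 30° C.; effects were scored visually 3 weeks after application.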

beet = test: Test Example 5: effect on crop by foliage application, plastic box (symbol f); conditions: 320 g/ha, 3 weeks after application
Procedure, shortened: as §1

[2] = tested on: Echinochloa crus-galli var. crus-galli; test: Test Example 3: herbicidal effect by foliage application, Wagner pot (symbol H); conditions: application herbicide amount 320 g/ha
Procedure, shortened: (§4)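 Post-emergence, paddy-type test: seedlings 14 d old in shallow-flooded (0.1–0.5 cm) alluvial soil, 25–30 °C greenhouse. Emulsion diluted to target rate, sprayed on leaves. Read-out: visual effect on each species at 3 weeks, per set criteria.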

soybean = test: Test Example 5: effect on crop by foliage application, plastic box (symbol d); conditions: 320 g/ha, 3 weeks after application
Procedure, shortened: as §1

Apera spica-venti [3] = test: Test Example 5: herbicidal effect by foliage application, plastic box (symbol L); conditions: 320 g/ha, 3 weeks after application
Procedure, shortened: as §2

Apera spica-venti [4] = test: Test Example 4: herbicidal effect by soil treatment (symbol L); conditions: for L: Apera spica-venti, herbicidal effect grade: 320 g/ha; for L (Apera spica-venti) herbicidal effect grade: application herbicide amount 320 g/ha
Procedure, shortened: as §3

[5] = tested on: Echinochloa crus-galli var. crus-galli; test: Test Example 4: herbicidal effect by soil treatment (symbol H); conditions: for H: Echinochloa crus-galli var. crus-galli, herbicidal effect grade: 320 g/ha; for H (Echinochloa crus-galli var. crus-galli) herbicidal effect grade: application herbicide amount 320 g/ha
Procedure, shortened: as §3

[6] = tested on: Echinochloa oryzacola Vasing.; test: Test Example 2: herbicidal activity, application during weed generation in submerged conditions (symbol A); conditions: Table 23; application herbicide amount 320 g/ha; grade 0-5 by criteria of Test Example 1
Procedure, shortened: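 Steps: fill pots with alluvial soil; add water to 4 cm depth; co-sow the three weeds; grow at 25° C. to 30° C. under glass; at 1–2 leaves, dose the floodwater with diluted emulsion; rate damage visually after 3 weeks.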

Stellaria media = test: Test Example 5: herbicidal effect by foliage application, plastic box (symbol P); conditions: 320 g/ha, 3 weeks after application
Procedure, shortened: as §2

Cyperus difformis = test: Test Example 3: herbicidal effect by foliage application, Wagner pot (symbol E); conditions: application herbicide amount 320 g/ha
Procedure, shortened: as §4

CON=C(C)CC1CC(OC(=O)C2=CCCC2)=C(c2c(C)cc(C)cc2C)C1=O (stereo not drawn) [1-088]
b: directly sowed rice plant, effect on crop (criteria 0-5) (rice plant): 5 (Herbicidal ratio of 90% or more (almost completely withered)) | G: Setaria viridis, herbicidal effect (criteria 0-5) (Setaria viridis): 5 (Herbicidal ratio of 90% or more (almost completely withered)) | Herbicidal effect grade, A: Echinochloa oryzacola Vasing. [1]: 5 (Herbicidal ratio of 90% or more (almost completely withered)) | N: Amaranthus retroflexus, herbicidal effect grade (Amaranthus retroflexus): 1 (Herbicidal ratio of 5% or higher and lower than 20%) | f: beet, effect on crop (criteria 0-5) (beet): 0 (Herbicidal ratio of 5% or lower (almost no effect)) | herbicidal effect on H (Echinochloa crus-galli var. crus-galli), grade 0-5 [2]: 5 (Herbicidal ratio of 90% or more (almost completely withered)) | d: soybean, effect on crop (criteria 0-5) (soybean): 3 (Herbicidal ratio of 40% or higher and lower than 70%) | L: Apera spica-venti, herbicidal effect (criteria 0-5) (Apera spica-venti [3]): 5 (Herbicidal ratio of 90% or more (almost completely withered)) | L: Apera spica-venti, herbicidal effect grade (Apera spica-venti [4]): 5 (Herbicidal ratio of 90% or more (almost completely withered)) | H: Echinochloa crus-galli var. crus-galli, herbicidal effect grade [5]: 5 (Herbicidal ratio of 90% or more (almost completely withered)) | Herbicidal effect grade, A: Echinochloa oryzacola Vasing. [6]: 5 (Herbicidal ratio of 90% or more (almost completely withered)) | P: Stellaria media, herbicidal effect (criteria 0-5) (Stellaria media): 3 (Herbicidal ratio of 40% or higher and lower than 70%) | herbicidal effect on E, grade 0-5 (Cyperus difformis): 5 (Herbicidal ratio of 90% or more (almost completely withered))

CON=C(C)CC1CC(OC(=O)COc2ccccc2[N+](=O)[O-])=C(c2c(C)cc(C)cc2C)C1=O (stereo not drawn) [1-071]
b: directly sowed rice plant, effect on crop grade (rice plant): 5 (Herbicidal ratio of 90% or more (almost completely withered)) | G: Setaria viridis, herbicidal effect grade (Setaria viridis): 5 (Herbicidal ratio of 90% or more (almost completely withered)) | Herbicidal effect grade, A: Echinochloa oryzacola Vasing. [1]: 5 (Herbicidal ratio of 90% or more (almost completely withered)) | N (Amaranthus retroflexus) herbicidal effect grade (Amaranthus retroflexus): 4 (Herbicidal ratio of 70% or higher and lower than 90%) | f: beet, effect on crop grade (beet): 0 (Herbicidal ratio of 5% or lower (almost no effect)) | herbicidal effect on H (Echinochloa crus-galli var. crus-galli), grade 0-5 [2]: 5 (Herbicidal ratio of 90% or more (almost completely withered)) | d: soybean, effect on crop grade (soybean): 4 (Herbicidal ratio of 70% or higher and lower than 90%) | L: Apera spica-venti, herbicidal effect grade (Apera spica-venti [3]): 5 (Herbicidal ratio of 90% or more (almost completely withered)) | L (Apera spica-venti) herbicidal effect grade (Apera spica-venti [4]): 5 (Herbicidal ratio of 90% or more (almost completely withered)) | H (Echinochloa crus-galli var. crus-galli) herbicidal effect grade [5]: 5 (Herbicidal ratio of 90% or more (almost completely withered)) | Herbicidal effect grade, A: Echinochloa oryzacola Vasing. [6]: 5 (Herbicidal ratio of 90% or more (almost completely withered)) | P: Stellaria media, herbicidal effect grade (Stellaria media): 0 (Herbicidal ratio of 5% or lower (almost no effect)) | herbicidal effect on E, grade 0-5 (Cyperus difformis): 5 (Herbicidal ratio of 90% or more (almost completely withered))

CC#CC(=O)OC1=C(c2c(C)cc(C)cc2C)C(=O)C(CC(C)=NOC)C1 (stereo not drawn) [1-095]
b: directly sowed rice plant, effect on crop (criteria 0-5) (rice plant): 5 (Herbicidal ratio of 90% or more (almost completely withered)) | G: Setaria viridis, herbicidal effect (criteria 0-5) (Setaria viridis): 5 (Herbicidal ratio of 90% or more (almost completely withered)) | Herbicidal effect grade, A: Echinochloa oryzacola Vasing. [1]: 5 (Herbicidal ratio of 90% or more (almost completely withered)) | N: Amaranthus retroflexus, herbicidal effect grade (Amaranthus retroflexus): 4 (Herbicidal ratio of 70% or higher and lower than 90%) | f: beet, effect on crop (criteria 0-5) (beet): 0 (Herbicidal ratio of 5% or lower (almost no effect)) | herbicidal effect on H (Echinochloa crus-galli var. crus-galli), grade 0-5 [2]: 5 (Herbicidal ratio of 90% or more (almost completely withered)) | d: soybean, effect on crop (criteria 0-5) (soybean): 2 (Herbicidal ratio of 20% or higher and lower than 40%) | L: Apera spica-venti, herbicidal effect (criteria 0-5) (Apera spica-venti [3]): 5 (Herbicidal ratio of 90% or more (almost completely withered)) | L: Apera spica-venti, herbicidal effect grade (Apera spica-venti [4]): 5 (Herbicidal ratio of 90% or more (almost completely withered)) | H: Echinochloa crus-galli var. crus-galli, herbicidal effect grade [5]: 5 (Herbicidal ratio of 90% or more (almost completely withered)) | Herbicidal effect grade, A: Echinochloa oryzacola Vasing. [6]: 5 (Herbicidal ratio of 90% or more (almost completely withered)) | P: Stellaria media, herbicidal effect (criteria 0-5) (Stellaria media): 2 (Herbicidal ratio of 20% or higher and lower than 40%) | herbicidal effect on E, grade 0-5 (Cyperus difformis): 5 (Herbicidal ratio of 90% or more (almost completely withered))

CCC(C)C(CC1CC(O)=C(c2c(C)cc(C)cc2C)C1=O)=NOC (stereo not drawn) [1-066]
b: directly sowed rice plant, effect on crop grade (rice plant): 5 (Herbicidal ratio of 90% or more (almost completely withered)) | G: Setaria viridis, herbicidal effect grade (Setaria viridis): 5 (Herbicidal ratio of 90% or more (almost completely withered)) | Herbicidal effect grade, A: Echinochloa oryzacola Vasing. [1]: 4 (Herbicidal ratio of 70% or higher and lower than 90%) | N (Amaranthus retroflexus) herbicidal effect grade (Amaranthus retroflexus): 0 (Herbicidal ratio of 5% or lower (almost no effect)) | f: beet, effect on crop grade (beet): 0 (Herbicidal ratio of 5% or lower (almost no effect)) | herbicidal effect on H (Echinochloa crus-galli var. crus-galli), grade 0-5 [2]: 5 (Herbicidal ratio of 90% or more (almost completely withered)) | d: soybean, effect on crop grade (soybean): 0 (Herbicidal ratio of 5% or lower (almost no effect)) | L: Apera spica-venti, herbicidal effect grade (Apera spica-venti [3]): 4 (Herbicidal ratio of 70% or higher and lower than 90%) | L (Apera spica-venti) herbicidal effect grade (Apera spica-venti [4]): 5 (Herbicidal ratio of 90% or more (almost completely withered)) | H (Echinochloa crus-galli var. crus-galli) herbicidal effect grade [5]: 5 (Herbicidal ratio of 90% or more (almost completely withered)) | Herbicidal effect grade, A: Echinochloa oryzacola Vasing. [6]: 2 (Herbicidal ratio of 20% or higher and lower than 40%) | P: Stellaria media, herbicidal effect grade (Stellaria media): 0 (Herbicidal ratio of 5% or lower (almost no effect)) | herbicidal effect on E, grade 0-5 (Cyperus difformis): 5 (Herbicidal ratio of 90% or more (almost completely withered))

CON=C(C)CC1CC(OC(=O)COc2ccc(F)cc2)=C(c2c(C)cc(C)cc2C)C1=O (stereo not drawn) [1-073]
b: directly sowed rice plant, effect on crop (criteria 0-5) (rice plant): 5 (Herbicidal ratio of 90% or more (almost completely withered)) | G: Setaria viridis, herbicidal effect (criteria 0-5) (Setaria viridis): 5 (Herbicidal ratio of 90% or more (almost completely withered)) | Herbicidal effect grade, A: Echinochloa oryzacola Vasing. [1]: 5 (Herbicidal ratio of 90% or more (almost completely withered)) | N (Amaranthus retroflexus) herbicidal effect grade (Amaranthus retroflexus): 5 (Herbicidal ratio of 90% or more (almost completely withered)) | f: beet, effect on crop (criteria 0-5) (beet): 1 (Herbicidal ratio of 5% or higher and lower than 20%) | herbicidal effect on H (Echinochloa crus-galli var. crus-galli), grade 0-5 [2]: 5 (Herbicidal ratio of 90% or more (almost completely withered)) | d: soybean, effect on crop (criteria 0-5) (soybean): 3 (Herbicidal ratio of 40% or higher and lower than 70%) | L: Apera spica-venti, herbicidal effect (criteria 0-5) (Apera spica-venti [3]): 5 (Herbicidal ratio of 90% or more (almost completely withered)) | L (Apera spica-venti) herbicidal effect grade (Apera spica-venti [4]): 5 (Herbicidal ratio of 90% or more (almost completely withered)) | H (Echinochloa crus-galli var. crus-galli) herbicidal effect grade [5]: 5 (Herbicidal ratio of 90% or more (almost completely withered)) | Herbicidal effect grade, A: Echinochloa oryzacola Vasing. [6]: 5 (Herbicidal ratio of 90% or more (almost completely withered)) | P: Stellaria media, herbicidal effect (criteria 0-5) (Stellaria media): 2 (Herbicidal ratio of 20% or higher and lower than 40%) | herbicidal effect on E, grade 0-5 (Cyperus difformis): 5 (Herbicidal ratio of 90% or more (almost completely withered))

CON=C(CC1CC(O)=C(c2c(C)cc(C)cc2C)C1=O)c1ccccc1 (stereo not drawn) [1-047]
b: directly sowed rice plant, effect on crop grade (rice plant): 4 (Herbicidal ratio of 70% or higher and lower than 90%) | G: Setaria viridis, herbicidal effect grade (Setaria viridis): 1 (Herbicidal ratio of 5% or higher and lower than 20%) | Herbicidal effect grade, A: Echinochloa oryzacola Vasing. [1]: 4 (Herbicidal ratio of 70% or higher and lower than 90%) | N (Amaranthus retroflexus) herbicidal effect grade (Amaranthus retroflexus): 0 (Herbicidal ratio of 5% or lower (almost no effect)) | f: beet, effect on crop grade (beet): 0 (Herbicidal ratio of 5% or lower (almost no effect)) | herbicidal effect on H (Echinochloa crus-galli var. crus-galli), grade 0-5 [2]: 1 (Herbicidal ratio of 5% or higher and lower than 20%) | d: soybean, effect on crop grade (soybean): 0 (Herbicidal ratio of 5% or lower (almost no effect)) | L: Apera spica-venti, herbicidal effect grade (Apera spica-venti [3]): 1 (Herbicidal ratio of 5% or higher and lower than 20%) | L (Apera spica-venti) herbicidal effect grade (Apera spica-venti [4]): 0 (Herbicidal ratio of 5% or lower (almost no effect)) | H (Echinochloa crus-galli var. crus-galli) herbicidal effect grade [5]: 3 (Herbicidal ratio of 40% or higher and lower than 70%) | Herbicidal effect grade, A: Echinochloa oryzacola Vasing. [6]: 2 (Herbicidal ratio of 20% or higher and lower than 40%) | P: Stellaria media, herbicidal effect grade (Stellaria media): 0 (Herbicidal ratio of 5% or lower (almost no effect)) | herbicidal effect on E, grade 0-5 (Cyperus difformis): 0 (Herbicidal ratio of 5% or lower (almost no effect))
